From US9724408B2, “Compositions and methods for activating stimulator of interferon gene-dependent signalling” (ADURO BIOTECH, INC., priority 2013, dated 2017)

Experiments:
[1] = test system: AH1 peptide; experiment: AH1-specific IFN-γ ELISpot of PBMCs from treated CT26-bearing mice; type: in vivo, BALB/c mice; settings: day 18 post tumor implantation, 1 μM AH1 peptide, P=0.003, FIG. 21B
Method: (§1) To determine whether the synthetic derivative CDN molecules elicit durable and effective anti-tumor T-cell immunity, 6-8 week old female BALB/c mice (8 mice per group) were implanted with CT26 colon carcinoma cells (1×10^5 cells in 100 μL PBS). Mice were treated with Rp, Rp dithio cyclic [A(2′,5′)pA(3′,5′)p] (ML RR-CDA) compound ([…] in a total volume of 40 μL HBSS) or HBSS vehicle control, and tumor growth was monitored as per previous example. Mice were bled on day 18 post tumor implantation and PBMCs were isolated by Ficoll gradient (Miltenyi Biotech). 5×10^4 PBMCs were stimulated overnight in an IFNγ ELISpot assay with media alone (unstimulated), or with 1 μM of the endogenous H-2 L^d-restricted tumor rejection antigen AH1 peptide in the presence of 1×10^5 naïve splenocytes as feeder cells. IFN-γ ELISpot plates were developed and quantified using a CTL plate reader and ImmunoSpot software. On day 55 post tumor implantation, surviving mice and age-matched naïve control mice were implanted on the contralateral flank with either CT26 or 4T1 (both 1×10^5 cells in 100 μL PBS) tumor cells (4 mice per group), and monitored for tumor growth.

[2] = test system: CT26; experiment: Re-challenge of surviving mice with CT26 tumor cells on the contralateral flank; type: in vivo, BALB/c mice
Method: as §1, with “growth. […]” for “growth.”

[3] = test system: B16 melanoma cells; experiment: Abscopal model, B16 flank tumor plus intravenous B16 lung colonization; type: in vivo, C57BL/6 mice; settings: three injections
Method: To determine whether the synthetic CDN derivative molecules promote abscopal anti-tumor immunity in an alternative tumor model and mouse genetic background, 6-8 week old female C57BL/6 mice (8 mice per group) were implanted with B16 melanoma cells (5×10^4 cells in 100 μL PBS) in the right flank. One week later mice were implanted intravenously with 1×10^5 B16 melanoma cells to colonize the lung, along with a group of naïve age-matched control mice. When the subcutaneous flank tumor reached approximately 75 mm^3 on day 13, mice were treated intratumorally with Rp, Rp dithio cyclic [A(2′,5′)pA(3′,5′)p] (ML RR-CDA) (50 μg in a total volume of 40 μL HBSS) or HBSS vehicle control, for three injections as per previous protocol. On day 28 post subcutaneous tumor implantation (day 21 post i.v. implantation), mice were euthanized and lungs were harvested and fixed (10% Neutral Buffered Formalin), and the number of lung tumor nodules counted using a dissecting microscope.

SMILES: Nc1ncnc2c1ncn2[C@@H]1O[C@@H]2COP(O)(=S)O[C@@H]3C(O)[C@@H](COP(O)(=S)O[C@H]2[C@H]1O)O[C@H]3n1cnc2c(N)ncnc21 (some centres unmarked) [ML RR-CDA, dithio-[RP, RP]-cyclic-[A(2′,5′)pA(3′,5′)p]]
- IFN-γ production of PBMCs in response to AH1 peptide [1]: significantly higher IFN-γ in response to AH1 peptide stimulation, as compared to the HBSS-treated control group
- protection against CT26 re-challenge, survivors of 4T1 tumors ([2]; re-challenge on day 35 post tumor implantation, FIG. 22B): complete protection
- protection against CT26 re-challenge, survivors of CT26 tumors ([2]; re-challenge on day 55 post tumor implantation, FIG. 21C): complete protection against the same CT26 tumor type
- growth of distal lung tumor nodules ([3]; 50 μg into the flank tumor, lungs on day 28, FIG. 24B, 24C): significantly inhibited the growth of distal lung tumor nodules
- tumor growth of the primary flank tumor ([3]; 50 μg intratumoral, P<0.001, FIG. 24A): significantly inhibited tumor growth of the primary flank tumor
